Measured values reported in ChEMBL document CHEMBL1155649, “A new inhibitor of 5'-hydroxyaverantin dehydrogenase, an enzyme involved in aflatoxin biosynthesis, from Trichoderma hamatum” (J Nat Prod, 2000).
Activity calls are given as the source filed them. No cut-off for these calls is given here.

Experiments:
[1] = Inhibition of malate dehydrogenase at 3 mM
[2] = Inhibition of Aspergillus parasiticus NIAH-26 5'-hydroxyaverantin dehydrogenase

## CO[C@H]1[C@@H](O)[C@@]2(C)c3ccc4c(c3-c3c2c(coc3=O)[C@@H]1O)CCC4=O (relative stereo)
[1]
  Activity: inactive
[2]
  IC50: 250 µM
